This note sets out measurements from PubChem BioAssay (NCI).

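1) Cells in 96-well plates. 2) Compound, 48 h, 5 concentrations. 3) Linear interpolation between surrounding doses. 4) Unreached endpoint = highest concentration. TGI denotes the concentration required for complete inhibition of growth.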

The first test relates to MDA-MB-435. In words: inhibition of tumour cell growth, NCI panel, 48 h.
As to `Cn1c(N)c2c3c(sc2nc1=O)CCCC3`, the TGI was above 75 µM.

In turn, `NC12Oc3cc(O)cc(O)c3C1(c1ccc(Cl)cc1)c1c(O)cc(O)cc1O2` (centres undefined) showed a TGI above 100 µM.

The compound `CCN(CC)C(=S)SS(=O)(=O)c1ccc(F)cc1` registered a TGI above 100 µM.

`Cn1c(=O)c2c(no[n+]2[O-])c2ccccc21` displayed a TGI of 68.5 µM.

The next test deals with SNB-19 CNS. In words: inhibition of tumour cell growth, NCI panel, 48 h.
On to `Cn1c(N)c2c3c(sc2nc1=O)CCCC3`, for which the TGI is above 75 µM.

Compound `NC12Oc3cc(O)cc(O)c3C1(c1ccc(Cl)cc1)c1c(O)cc(O)cc1O2` (centres undefined) displayed a TGI above 100 µM.

The compound `CCN(CC)C(=S)SS(=O)(=O)c1ccc(F)cc1` registered a TGI above 100 µM.

Turning to `Cn1c(=O)c2c(no[n+]2[O-])c2ccccc21`, the TGI is 84.2 µM.

A further test deals with U251 CNS. The test can be described thus: inhibition of tumour cell growth, NCI panel, 48 h.
Consider `Cn1c(N)c2c3c(sc2nc1=O)CCCC3`, for which the TGI is above 75 µM.

On to `NC12Oc3cc(O)cc(O)c3C1(c1ccc(Cl)cc1)c1c(O)cc(O)cc1O2` (centres undefined), for which the TGI was above 100 µM.

The compound `CCN(CC)C(=S)SS(=O)(=O)c1ccc(F)cc1` showed a TGI of 73.4 µM.

The compound `Cn1c(=O)c2c(no[n+]2[O-])c2ccccc21` came in with a TGI of 34.7 µM.

The next test relates to SR leukemia. The test can be described thus: inhibition of tumour cell growth, NCI panel, 48 h.
In turn, `Cn1c(N)c2c3c(sc2nc1=O)CCCC3` yielded a TGI above 75 µM.

In turn, `NC12Oc3cc(O)cc(O)c3C1(c1ccc(Cl)cc1)c1c(O)cc(O)cc1O2` (centres undefined) yielded a TGI above 100 µM.

For the compound `CCN(CC)C(=S)SS(=O)(=O)c1ccc(F)cc1`, the TGI amounted to 57.5 µM.

Consider `Cn1c(=O)c2c(no[n+]2[O-])c2ccccc21`, for which the TGI was 52.3 µM.

In another test the test system is HS 578T breast. The test can be described thus: inhibition of tumour cell growth, NCI panel, 48 h.
In turn, `Cn1c(N)c2c3c(sc2nc1=O)CCCC3` showed a TGI above 75 µM.

Compound `NC12Oc3cc(O)cc(O)c3C1(c1ccc(Cl)cc1)c1c(O)cc(O)cc1O2` (centres undefined) yielded a TGI above 100 µM.

The compound `CCN(CC)C(=S)SS(=O)(=O)c1ccc(F)cc1` came in with a TGI above 100 µM.

`Cn1c(=O)c2c(no[n+]2[O-])c2ccccc21`: the TGI is 62.2 µM.

The next test has as its system HCC-2998 colon. The test can be described thus: inhibition of tumour cell growth, NCI panel, 48 h.
`Cn1c(N)c2c3c(sc2nc1=O)CCCC3` showed a TGI above 75 µM.

`NC12Oc3cc(O)cc(O)c3C1(c1ccc(Cl)cc1)c1c(O)cc(O)cc1O2` (centres undefined) registered a TGI above 100 µM.

Turning to `CCN(CC)C(=S)SS(=O)(=O)c1ccc(F)cc1`, the TGI was above 100 µM.

As for `Cn1c(=O)c2c(no[n+]2[O-])c2ccccc21`, the TGI came to 27.3 µM.

The next test concerns OVCAR-8 ovarian. The test can be described thus: inhibition of tumour cell growth, NCI panel, 48 h.
`Cn1c(N)c2c3c(sc2nc1=O)CCCC3` yielded a TGI above 75 µM.

`NC12Oc3cc(O)cc(O)c3C1(c1ccc(Cl)cc1)c1c(O)cc(O)cc1O2` (centres undefined): the TGI is above 100 µM.

`CCN(CC)C(=S)SS(=O)(=O)c1ccc(F)cc1` had a TGI above 100 µM.

`Cn1c(=O)c2c(no[n+]2[O-])c2ccccc21` came in with a TGI of 28.3 µM.

In the next test the test system is KM12 colon. The test can be described thus: inhibition of tumour cell growth, NCI panel, 48 h.
`Cn1c(N)c2c3c(sc2nc1=O)CCCC3`: the TGI is above 75 µM.

Compound `NC12Oc3cc(O)cc(O)c3C1(c1ccc(Cl)cc1)c1c(O)cc(O)cc1O2` (centres undefined) returned a TGI above 100 µM.

Compound `CCN(CC)C(=S)SS(=O)(=O)c1ccc(F)cc1` returned a TGI above 100 µM.

In turn, `Cn1c(=O)c2c(no[n+]2[O-])c2ccccc21` had a TGI of 25.2 µM.

In another test the test system is K-562 leukemia. The test can be described thus: inhibition of tumour cell growth, NCI panel, 48 h.
As to `Cn1c(N)c2c3c(sc2nc1=O)CCCC3`, the TGI was above 75 µM.

For the compound `NC12Oc3cc(O)cc(O)c3C1(c1ccc(Cl)cc1)c1c(O)cc(O)cc1O2` (centres undefined), the TGI was above 100 µM.

Turning to `CCN(CC)C(=S)SS(=O)(=O)c1ccc(F)cc1`, the TGI was above 100 µM.

Take `Cn1c(=O)c2c(no[n+]2[O-])c2ccccc21`: the TGI was above 100 µM.

In the next test the test system is NCI-H23 lung. In words: inhibition of tumour cell growth, NCI panel, 48 h.
Compound `Cn1c(N)c2c3c(sc2nc1=O)CCCC3` gave a TGI above 75 µM.

`NC12Oc3cc(O)cc(O)c3C1(c1ccc(Cl)cc1)c1c(O)cc(O)cc1O2` (centres undefined) yielded a TGI above 100 µM.

Regarding `CCN(CC)C(=S)SS(=O)(=O)c1ccc(F)cc1`, the TGI is above 100 µM.

With `Cn1c(=O)c2c(no[n+]2[O-])c2ccccc21`, the TGI was found to be 34.8 µM.

The next test concerns DU-145 prostate. The test can be described thus: inhibition of tumour cell growth, NCI panel, 48 h.
`Cn1c(N)c2c3c(sc2nc1=O)CCCC3` had a TGI above 75 µM.

For `NC12Oc3cc(O)cc(O)c3C1(c1ccc(Cl)cc1)c1c(O)cc(O)cc1O2` (centres undefined), the TGI is above 100 µM.

`CCN(CC)C(=S)SS(=O)(=O)c1ccc(F)cc1`: the TGI was above 100 µM.

The next test relates to NCI/ADR-RES ovarian. In words: inhibition of tumour cell growth, NCI panel, 48 h.
On to `Cn1c(N)c2c3c(sc2nc1=O)CCCC3`, for which the TGI is above 75 µM.

With `NC12Oc3cc(O)cc(O)c3C1(c1ccc(Cl)cc1)c1c(O)cc(O)cc1O2` (centres undefined), the TGI was above 100 µM.

For `CCN(CC)C(=S)SS(=O)(=O)c1ccc(F)cc1`, the TGI was above 100 µM.

For `Cn1c(=O)c2c(no[n+]2[O-])c2ccccc21`, the TGI stood at 47.3 µM.

Another test deals with MDA-N. The test can be described thus: inhibition of tumour cell growth, NCI panel, 48 h.
In turn, `Cn1c(N)c2c3c(sc2nc1=O)CCCC3` returned a TGI above 75 µM.

In turn, `NC12Oc3cc(O)cc(O)c3C1(c1ccc(Cl)cc1)c1c(O)cc(O)cc1O2` (centres undefined) yielded a TGI above 100 µM.

Consider `CCN(CC)C(=S)SS(=O)(=O)c1ccc(F)cc1`, for which the TGI was above 100 µM.

On to `Cn1c(=O)c2c(no[n+]2[O-])c2ccccc21`, for which the TGI was 87.2 µM.

The subject of a further test is OVCAR-3 ovarian. The test can be described thus: inhibition of tumour cell growth, NCI panel, 48 h.
The compound `Cn1c(N)c2c3c(sc2nc1=O)CCCC3` returned a TGI above 75 µM.

`NC12Oc3cc(O)cc(O)c3C1(c1ccc(Cl)cc1)c1c(O)cc(O)cc1O2` (centres undefined) gave a TGI above 100 µM.

In the case of `CCN(CC)C(=S)SS(=O)(=O)c1ccc(F)cc1`, the TGI was above 100 µM.
